These results are taken from PMC12144893, “Synthesis and Characterization of Photoswitchable Covalent Ligands for the β2‐Adrenoceptor” (Angewandte Chemie (International Ed. in English), 2025).

Read-outs that look alike come from different tables or passages of the source.

For series [1], the target named is T1, human β2AR (Homo sapiens, UniProt P07550).
T1 construct: host or cells: HEK-293T
Format: cell-based.

Series [2] can be described thus: Thermal half-life of the metastable Z isomer. Format: physicochemical. The note with it: Tris buffer + 0.5% DMSO. As to the method: Figure S36. Photostationary state of 9 after irradiation with 528 nm (switching to the E -isomer).
1.4.3. Thermal Half-lives
For the determination of the thermal stability of the metastable Z isomer a 50 µM solution in Tris buffer
+ 0.5% DMSO was irradiated with 365 nm. For 4 weeks the absorption at 335 nm was measured every
ExpDec1 Fit of Sheet1 B 0,35 ExpDec1 Fit of Sheet1 B
Modell ExpDec1 Modell ExpDec1
Gle i c hung y = A 1 *e xp (-x/t1 ) + y0 Gle i c hung y = A 1 *e xp (-x/t1 ) + y0
Ze i c hne n B Ze i c hne n B
(also on this page, place not known: E-isomer). 0,45absorption 335 nm Gleichung A1*exp(-x/t1) Zeichnen (COD) 0,50absorption 335 nm Gleichung A1*exp(-x/t1) Zeichnen (COD)) […]

Series [3] in a line: Photostationary states by analytical HPLC at isosbestic points. Format: physicochemical. The note with it: single experiment; for PSS (E → Z): irradiation with 365 nm; for PSS (Z → E): irradiation with 528 nm. As to the method: (§1) Wavelength λ [nm] Cycle Number
Figure S18. UV/Vis spectr um and cycle performance of 7.
1.4.2. Photostationary States
Photostationary states (PSS) were measured on analytical HPLC. To determine the photostationary state of the photoswitches the samples (0.2 mM in Tris buffer + 2% DMSO) were irradiated first with 3 65 nm to get the Z -isomer (Peak 1). Afterwards, the sample was irradiated with 528 nm to get back to the E-isomer (Peak 2). The samples were measured at the isosbestic points.
Figure S19. Photostationary state of 1 after irradiation with 365 nm (switching to the Z - isomer).
Figure S20. Photostationary state of 1 after irradiation with 528 nm (switching to the E -isomer). […]

Series [4] is described as follows: UV/Vis spectra of E- and Z-isomers in Tris buffer. Format: physicochemical. The note with it: for λmax (E): E-isomer, Tris buffer 50 mM Tris, 1 mM EDTA, 1 mM MgCl2; for λmax (Z): Z-isomer, Tris buffer. As to the method:
1.4. Photophysical Characterization
1.4.1. UV/Vis Spectra and Cycle Performance
UV/Vis absorption spectra were measured to characterize the photophysical properties of the synthesized pho to switches. The pho to switches were diluted with TRIS buffer (50 m M Tris, 1 m M EDTA, 1 mM MgCl2, pH 7.4) to end up with a concentration of 10 µM + 0.5% DMSO. The spectra were measured in a quartz glass cuvette after different illuminations with LED modules. First, the solution was illuminated with 365 nm light for 10 s to switch to the Z -isomer. After measuring the UV/Vis spectrum of the Z-isomer (purple curve), the solution was illuminated with 528 nm light for 120 s and the spectrum for the E -isomer (black curve) was measured. This cycle was repeated ten times to show the stability and repeatability of switching the compound. The isosbestic points could be determined from an overlay of the UV/Vis spectra of both isomers.
as §1
Figure S10. UV/Vis spectr um and cycle performance of 1.
Figure S11. UV/Vis spectr um and cycle performance of 2.
(also on this page, place not known: photoswitches. photoswitches mM mM MgCl 2, 0.5 % E-isomer coul d spectrum spectrum 600 0,15Absorbance 0 Absorbance 340 nm 600 0,18Absorbance 0 Absorbance 335 nm)

Where [5] appears, read: E-isomer, β2AR wild type, mean ± S.E.M.
Setting [6] is: HEK-293T, E-isomer, β2AR wild type, relative to maximum effect of norepinephrine, read-out: Emax.
Where [7] appears, read: HEK-293T, Z-isomer, β2AR wild type, relative to maximum effect of norepinephrine, read-out: Emax.
Setting [8] is: Z-isomer, β2AR wild type, mean ± S.E.M.
Where [9] appears, read: HEK-293T, reference agonists, β2AR wild-type, relative to norepinephrine, read-out: Emax.

T1 sequence (P07550 whole entry): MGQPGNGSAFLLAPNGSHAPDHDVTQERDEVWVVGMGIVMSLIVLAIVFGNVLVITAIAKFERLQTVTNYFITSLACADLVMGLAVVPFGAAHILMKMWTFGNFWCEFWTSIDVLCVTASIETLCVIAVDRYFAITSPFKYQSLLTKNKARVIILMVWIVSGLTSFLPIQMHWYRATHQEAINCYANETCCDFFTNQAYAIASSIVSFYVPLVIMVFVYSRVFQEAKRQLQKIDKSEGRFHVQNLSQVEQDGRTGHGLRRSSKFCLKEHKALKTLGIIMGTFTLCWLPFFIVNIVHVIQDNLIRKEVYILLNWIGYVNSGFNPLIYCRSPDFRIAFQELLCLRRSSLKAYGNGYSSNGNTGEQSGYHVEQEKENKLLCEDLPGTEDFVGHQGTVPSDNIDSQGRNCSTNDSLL

What is called EC50 is the concentration needed to bring the measured effect to its halfway point. Low readings indicate an effect from little substance, high ones a need for much substance. A word on the Emax: it is the size of the effect at its maximum, as opposed to the concentration needed. Regarding `Cc1nn(CCSSCCN)c(C)c1N=Nc1ccc(CCNCC(O)c2ccc(O)c3c2OCC(=O)N3)cc1` (mixture of isomers) [Compound 3], the EC50 stood at 7.2 ± 3 nM in series [1] (setting [5]) and 17 ± 6.3 nM in series [1] (setting [8]). The Emax in series [1] (setting [6]) is 85 ± 2%; in series [1] (setting [7]), 78 ± 4%. Moreover, the t1/2 in series [2] was 15.2 days. Moreover, in series [3], the “PSS (E → Z)” value was 95%. Further, in series [3], the “PSS (Z → E)” value is recorded as 89%. For the same compound, the “λmax (E)” value in series [4] is reported as 337 nm. Besides, the “λmax (Z)” value in series [4] came out at 434 nm.

Turning to `Cc1nn(CCCCSSCCN)c(C)c1/N=N/c1ccc(CCNCC(O)c2ccc(O)c3c2OCC(=O)N3)cc1` (racemic) [Compound E-5], in series [1] (setting [5]), the response was half-maximal at 79 nM (EC50).

In the case of `Cc1nn(CCCCCSSCCN)c(C)c1/N=N/c1ccc(CCNCC(O)c2ccc(O)c3c2OCC(=O)N3)cc1` (racemic) [Compound E-6], in series [1] (E-isomer, β2AR wild type, relative to maximum effect of norepinephrine), the Emax came to 70%.

Consider `Cc1nn(CCCCCSSCCN)c(C)c1/N=N\c1ccc(CCNCC(O)c2ccc(O)c3c2OCC(=O)N3)cc1` (racemic) [Compound Z-6], for which the Emax in series [1] (Z-isomer, β2AR wild type, relative to maximum effect of norepinephrine) was 85%.

For the compound `Cc1nn(CCSSCCN(C)C)c(C)c1/N=N/c1ccc(CCNC[C@H](O)c2ccc(O)c(O)c2)cc1` [Compound 1, (R,E)-4-(2-((4-((1-(2-((2-(Dimethylamino)ethyl)disulfaneyl)ethyl)-3,5-dimethyl-1H-pyrazol-4-yl)diazenyl)phenethyl)amino)-1-hydroxyethyl)benzene-1,2-diol], in series [1] (setting [5]), the response was half-maximal at 630 ± 72 nM (EC50). The Emax in series [1] (setting [6]) amounted to 108 ± 3%. For the same compound, the Emax in series [1] (setting [7]) was 78 ± 1%. In series [1] (setting [8]), this compound registered an EC50 of 480 ± 110 nM. In addition, the t1/2 in series [2] was found to be 3.9 days. In series [3], the “PSS (E → Z)” value turned out to be 89% and the “PSS (Z → E)” value is given as 90%. In addition, in series [4], the “λmax (E)” value is given as 335 nm and the “λmax (Z)” value is 435 nm.

As for `Cc1nn(CCCSSCCN(C)C)c(C)c1/N=N/c1ccc(CCNC[C@H](O)c2ccc(O)c(O)c2)cc1` [Compound 2], the EC50 is 940 ± 34 nM in series [1] (setting [5]) and 700 ± 35 nM in series [1] (setting [8]). In addition, the Emax in series [1] (setting [6]) stood at 96 ± 2%; in series [1] (setting [7]), 97 ± 1%. In series [2], the t1/2 is 4.9 days. Further, in series [3], the “PSS (E → Z)” value amounted to 89%. Further, the “PSS (Z → E)” value in series [3] is recorded as 87%. Moreover, the “λmax (E)” value in series [4] is 335 nm. In addition, the “λmax (Z)” value in series [4] is recorded as 433 nm.

Consider `Cc1nn(CCCSSCCN)c(C)c1/N=N/c1ccc(CCNCC(O)c2ccc(O)c3c2OCC(=O)N3)cc1` (centres unmarked) [Compound 4], for which the EC50 in series [1] (setting [5]) was 39 ± 7 nM; in series [1] (setting [8]) it was 9.8 ± 0.9 nM. Also, the Emax stood at 88 ± 3% in series [1] (setting [6]) and 87 ± 5% in series [1] (setting [7]). The t1/2 in series [2] stood at 15.7 days. Moreover, in series [3], the “PSS (E → Z)” value was determined as 96%. In addition, the “PSS (Z → E)” value in series [3] is listed as 92%. In series [4], the “λmax (E)” value was determined as 339 nm. In series [4], the “λmax (Z)” value stood at 436 nm.

For `Cc1nn(CCCCSSCCN)c(C)c1/N=N/c1ccc(CCNCC(O)c2ccc(O)c3c2OCC(=O)N3)cc1` (centres unmarked) [Compound 5], a half-maximal effect in series [1] (setting [5]) (EC50) was put at 79 ± 25 nM. Also, the Emax in series [1] (setting [6]) came to 98 ± 1%. Besides, the Emax in series [1] (setting [7]) turned out to be 93 ± 4%. This compound registered an EC50 in series [1] (setting [8]) of 9.9 ± 1.7 nM. In addition, the t1/2 in series [2] is 16.7 days. For the same compound, in series [3], the “PSS (E → Z)” value is listed as 94% and the “PSS (Z → E)” value is given as 92%. Further, in series [4], the “λmax (E)” value amounted to 338 nm and the “λmax (Z)” value is listed as 436 nm.

`Cc1nn(CCCCCSSCCN)c(C)c1/N=N/c1ccc(CCNCC(O)c2ccc(O)c3c2OCC(=O)N3)cc1` (centres unmarked) [Compound 6] showed an EC50 in series [1] (setting [5]) of 38 ± 5.8 nM. The Emax in series [1] (setting [6]) amounted to 70 ± 2%. In addition, the Emax in series [1] (setting [7]) worked out at 89 ± 1%. The same compound came in with an EC50 in series [1] (setting [8]) of 21 ± 1.3 nM. In series [2], the t1/2 was found to be 13.3 days. Besides, in series [3], the “PSS (E → Z)” value was 95% and the “PSS (Z → E)” value was 93%. In series [4], the “λmax (E)” value was 340 nm and the “λmax (Z)” value is 435 nm.

For `Cc1nn(CCN2C(=O)C=CC2=O)c(C)c1/N=N/c1ccc(CCNC[C@H](O)c2ccc(O)c(O)c2)cc1` [Compound 7], the EC50 in series [1] (setting [5]) was 1500 nM; in series [1] (setting [8]), 4300 nM. The Emax in series [1] (setting [6]) worked out at 103 ± 4%; in series [1] (setting [7]) it was 101 ± 10%. In addition, the t1/2 in series [2] was found to be 4.5 days. The “PSS (E → Z)” value in series [3] came out at 92%. Besides, the “PSS (Z → E)” value in series [3] came to 85%. Further, the “λmax (E)” value in series [4] was found to be 335 nm. The “λmax (Z)” value in series [4] worked out at 433 nm.

Take `Cc1nn(CCN2C(=O)C=CC2=O)c(C)c1/N=N/c1ccc(CCNCC(O)c2ccc(O)c3c2OCC(=O)N3)cc1` (centres unmarked) [Compound 8]: the figures for the EC50 in series [1] (setting [5]) and in series [1] (setting [8]) were 53 ± 2.6 nM and 75 ± 2.3 nM, respectively. The Emax in series [1] (setting [6]) stood at 84 ± 5%; in series [1] (setting [7]), 90 ± 2%. In addition, in series [2], the t1/2 turned out to be 18.6 days. Moreover, the “PSS (E → Z)” value in series [3] came out at 95%. Also, the “PSS (Z → E)” value in series [3] came to 94%. In series [4], the “λmax (E)” value came out at 337 nm. Also, in series [4], the “λmax (Z)” value came to 435 nm.

`Cc1nn(CCCN2C(=O)C=CC2=O)c(C)c1/N=N/c1ccc(CCNCC(O)c2ccc(O)c3c2OCC(=O)N3)cc1` (centres unmarked) [Compound 9] had an EC50 in series [1] (setting [5]) of 72 ± 12 nM. Also, in series [1] (setting [6]), the Emax came out at 88 ± 5%. For the same compound, the Emax in series [1] (setting [7]) came out at 85 ± 5%. Besides, in series [1] (setting [8]), the midpoint of the response, the EC50, lay at 57 ± 8.5 nM. For the same compound, the t1/2 in series [2] worked out at 20.4 days. Moreover, in series [3], the “PSS (E → Z)” value is reported as 95% and the “PSS (Z → E)” value was found to be 93%. For the same compound, in series [4], the “λmax (E)” value is 339 nm and the “λmax (Z)” value stood at 435 nm.

In series [1] (setting [5]), `Cc1nn(CCSSCCN)c(C)c1/N=N/c1ccc(CCNCC(O)c2ccc(O)c3c2OCC(=O)N3)cc1` (centres unmarked) [Compound E-3] showed an EC50 of 7.2 nM.

The compound `Cc1nn(CCSSCCN(C)C)c(C)c1/N=N\c1ccc(CCNC[C@H](O)c2ccc(O)c(O)c2)cc1` [Compound Z-1] registered an EC50 in series [1] (Z-isomer, β2AR wild type) of 480 nM.

With `Cc1nn(CCN2C(=O)C=CC2=O)c(C)c1/N=N\c1ccc(CCNC[C@H](O)c2ccc(O)c(O)c2)cc1` [Compound Z-7], the concentration for a half-maximal effect (EC50) in series [1] (Z-isomer, β2AR wild type) amounted to 4300 nM.

Regarding `CNC[C@H](O)c1ccc(O)c(O)c1` [epinephrine, reference compound], the Emax in series [1] (setting [9]) turned out to be 103%.

As for `NC[C@H](O)c1ccc(O)c(O)c1` [norepinephrine, reference compound], the Emax in series [1] (setting [9]) stood at 100%.
